Experimental data as given in US20090099167A1, “Organic compounds” (Novartis Institutes for Biomedical Research, priority 2004, published 2009).
pIC50: −log10 of the molar value. Like-named read-outs stand apart in the source and are kept apart here.

Legend:
Cdk1/cycB = Cdk1/cycB (UniProt P06493); experiment: Cdk1/cycB kinase assay, histone H1 substrate; format: biochemical, starfish; settings: Table 4; read-out: Cdk1, activity (IC50 for kinase inhibition)
Experimental: The inhibition of Cdk1 can be determined as follows: Cdk1/cycB: Cdk1/cycB are obtained from ProQinase, Freiburg, Germany. Starfish oocytes are induced to enter M phase of the cell cycle with 10 μM 1-methyladenine and frozen in liquid nitrogen and stored at −80° C. […] Briefly, the supernatant from oocytes is equilibrated for 30 min at 4° C. under constant rotation with the p9^CKShs-sepharose beads. The beads are extensively washed and active cdk1/cycB kinase is eluted with purified p9^CKShs (3 mg/ml). […] The assay is carried with slight modifications in 96-well plates at ambient temperature for 20 min. […] The reaction is terminated by addition of 25 μl 0.05 M EDTA pH 7.0. An aliquot of 40 μl is spotted with a multichannel dispenser on Immobilon P membranes mounted in a Millipore Microtiter filter manifold connected to a low vacuum source. After elimination of liquid, the membrane is transferred to a sequence of 4 washing baths containing 0.5% H3PO4 and one with EtOH (shaking incubation for 10 min each), dried, mounted onto a Hewlett Packard TopCount manifold added 10 μl Microscint® and counted. […] Cells were seeded at 2.5×10^7 cells per 150 mm dish and allowed to attach to a 150 mm dish for 1 hr at RT. Media (SF900II containing 10% FBS) is aspirated and recombinant baculovirus; GST-C-Raf-1, v-Ras and v-Src are added at MOI of 3.0, 2.5 and 2.5 receptively in a total volume of 4-5 mL. Cells are incubated for 1 hr at RT and then 15 mL of medium is added. Infected cells are incubated for 48-72 hr at 27° C. Infected Sf21 cells are scraped and collected into a 50 mL tube and centrifuged for 10 min at 4° C. at 1100 g in a Sorvall centrifuge. The cell pellet is washed once with ice cold PBS and lysed with 0.6 mL lysis buffer per 2.5×10^7 cells. Complete lysis of cells is achieved after 10 min on ice with occasional pipetting. […] GST-c-Raf-1 was allowed to bind to the beads at 4° C. for 1 hr with rocking. Bound GST-c-Raf-1 with beads was transferred to a column. The column is washed once with lysis buffer and twice with ice cold Tris buffered saline. Ice cold elution buffer is added and column flow is stopped to allow the free glutathione to disrupt the interaction of GST-c-Raf-1 with glutathione sepharose beads. Fractions (1 mL) are collected into pre-chilled tubes. Each tube contains 10% glycerol (final concentration) to maintain kinase activity during freeze thaw cycles. Purified fractions of GST-c-Raf-1 kinase protein are stored at −80° C.

human EphB4 receptor = target: T1, human EphB4 receptor (Homo sapiens, UniProt P54760); experiment: EphB4 kinase assay, GST-EphB, 33P incorporation into poly(Glu,Tyr); format: biochemical
T1 construct: made in house; host or cells: Sf9 or Sf21 (baculovirus)
T1 sequence (P54760 566-987): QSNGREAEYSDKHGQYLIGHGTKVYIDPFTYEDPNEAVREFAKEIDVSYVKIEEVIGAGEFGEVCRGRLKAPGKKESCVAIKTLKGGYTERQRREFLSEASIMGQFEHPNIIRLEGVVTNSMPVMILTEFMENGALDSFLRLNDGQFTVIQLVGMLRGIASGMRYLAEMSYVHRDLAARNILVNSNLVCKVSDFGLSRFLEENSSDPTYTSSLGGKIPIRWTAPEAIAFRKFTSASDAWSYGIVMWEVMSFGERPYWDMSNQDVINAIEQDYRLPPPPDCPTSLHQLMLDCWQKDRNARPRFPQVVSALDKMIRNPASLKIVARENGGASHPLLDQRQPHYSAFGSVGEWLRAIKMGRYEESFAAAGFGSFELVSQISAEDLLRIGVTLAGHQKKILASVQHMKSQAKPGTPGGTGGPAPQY
Source text: EphB4: Production and measure of enzymatic activity: Generation of Bac-to-Bac™ (Initrogen Life Technologies, Basel, Switzerland) GST-fusion expression vectors: Entire cytoplasmatic coding regions of the EphB-class are amplified by PCR from cDNA libraries derived from human placenta or brain, respectively. Recombinant baculovirus are generated that express the amino acid region 566-987 of the human EphB4 receptor (SwissProt Database, Accession No. P54760). GST sequence is cloned into pFastBac1® vector (Invitrogen Life Technologies, Basel, Switzerland) and PCR amplified. cDNAs encoding EphB4-receptor domains, respectively, are cloned in frame 3′prime to the GST sequence into this modified FastBac1 vector to generate pBac-to-Bac™ donor vectors. Single colonies arising from the transformation are inoculated to give overnight cultures for small scale plasmid preparation. […] By automated sequencing the inserts and approximately 50 bp of the flanking vector sequences are confirmed on both strands. Production of viruses: Viruses for each of the kinases are made according to the protocol supplied by GIBCO if not stated otherwise. In brief, transfer vectors containing the kinase domains are transfected into the DH10Bac cell line (GIBCO) and plated on selective agar plates. Colonies without insertion of the fusion sequence into the viral genome (carried by the bacteria) are blue. Single white colonies are picked and viral DNA (bacmid) isolated from the bacteria by standard plasmid purification procedures. Sf9 cells or Sf21 cells are then transfected in 25 cm2 flasks with the viral DNA using Cellfectin reagent according to the protocol. Purification of GST-tagged kinases: The centrifuged cell lysate is loaded onto a 2 mL glutathione-sepharose column (Pharmacia) and washed three times with 10 mL of 25 mM Tris-HCl, pH 7.5, 2 mM EDTA, 1 mM DTT, 200 mM NaCl. The GST-tagged proteins are then eluted by 10 applications (1 mL each) of 25 mM Tris-HCl, pH 7.5, 10 mM reduced-glutathione, 100 mM NaCl, 1 mM DTT, 10% Glycerol and stored at −70° C. Protein kinase assays: The activities of protein kinases are assayed in the presence or absence of inhibitors, by measuring the incorporation of 33P from [γ33P]ATP into a polymer of glutamic acid and tyrosine (poly(Glu,Tyr)) as a substrate. The kinase assays with purified GST-EphB (30 ng) are carried out for 15-30 min at ambient temperature in a final volume of 30 μL containing 20 mM Tris.HCl, pH 7.5, 10 mM MgCl2, 3-50 mM MnCl2, 0.01 mM Na3VO4, 1% DMSO, 1 mM DTT, 3 μg/mL poly(Glu,Tyr) 4:1 (Sigma; St. Louis, Mo., USA) and 2.0-3.0 μM ATP (γ-[33P]-ATP 0.1 μCi). The assay is terminated by the addition of 20 μL of 125 mM EDTA. Subsequently, 40 μl of the reaction mixture are transferred onto Immobilon-PVDF membrane (Millipore, Bedford, Mass., USA) previously soaked for 5 min with methanol, rinsed with water, then soaked for 5 min with 0.5% H3PO4 and mounted on vacuum manifold with disconnected vacuum source. After spotting all samples, vacuum is connected and each well rinsed with 200 μl 0.5% H3PO4. Membranes are removed and washed 4× on a shaker with 1.0% H3PO4, once with ethanol. Membranes are counted after drying at ambient temperature, mounting in Packard TopCount96-well frame, and addition of 10 μL/well of Microscint™ (Packard). IC50 values are calculated by linear regression analysis of the percentage inhibition of each compound in duplicate, at four concentrations (usually 0.01, 0.1, 1 and 10 μM). One unit of protein kinase activity is defined as 1 nmole of 33P ATP transferred from [γ33P] ATP to the substrate protein per minute per mg of protein at 37° C. Compounds of formula I show EphB4 inhibition down to 10 nM, preferably IC50 values between 0.01-1.0 μM.

SMILES | melting point | further results
COc1cccc(-c2cnc3c(-c4ccc(N5CCN(C)CC5)cc4)cnn3c2N)c1 [Example 2, 6-(3-Methoxy-phenyl)-3-[4-(4-methyl-piperazin-1-yl)-phenyl]-pyrazolo[1,5-a]pyrimidin-7-ylamine] | – | pIC50 (Cdk1/cycB): > 5.00
CN(C)c1ccc(-c2cnn3c(N)c(-c4ccc(NS(=O)(=O)c5cccc(Cl)c5Cl)cc4)cnc23)cc1 [Example 10, N-{4-[7-Amino-3-(4-dimethylamino-phenyl)-pyrazolo[1,5-a]pyrimidin-6-yl]-phenyl}-2,3-dichloro-benzenesulfonamide] | 143 to 146 °C | –
CN(C)c1ccc(-c2cnn3c(N)c(-c4ccc(OS(=O)(=O)c5ccc(Cl)cc5)cc4)cnc23)cc1 [Example 11, 4-Chloro-benzenesulfonic acid 4-[7-amino-3-(4-dimethylamino-phenyl)-pyrazolo[1,5-a]pyrimidin-6-yl]-phenyl ester] | 186 to 188 °C | –
CN1CCN(c2cccc(-c3cnn4c(N)c(-c5ccccc5O)cnc34)c2)CC1 [Example 37, 2-{7-Amino-3-[3-(4-methyl-piperazin-1-yl)-phenyl]-pyrazolo[1,5-a]pyrimidin-6-yl}-phenol] | – | pIC50 (Cdk1/cycB): > 5.00
Cn1cc(-c2cnn3c(N)c(-c4cccc(O)c4)cnc23)c2ccccc21 [Example 45, 3-[7-Amino-3-(1-methyl-1H-indol-3-yl)-pyrazolo[1,5-a]pyrimidin-6-yl]-phenol] | – | pIC50 (human EphB4 receptor; Table 4, read-out: EphB4, activity (IC50 for kinase inhibition)): > 5.00
COc1ccc(N2CCN(C)CC2)cc1-c1cnn2c(N)c(-c3cccc(Cl)c3)c(C)nc12 [Example 74, 6-(3-Chloro-phenyl)-3-[2-methoxy-5-(4-methyl-piperazin-1-yl)-phenyl]-5-methyl-pyrazolo[1,5-a]pyrimidin-7-ylamine] | 116 to 121 °C | pIC50 (human EphB4 receptor; Table 5, read-out: EphB4, IC50 class): > 6.00
CCN(CC)C1CCN(c2cccc(-c3cnn4c(N)c(-c5cccc(Cl)c5)c(C)nc34)c2)CC1 [Example 104, 6-(3-Chloro-phenyl)-3-[3-(4-diethylamino-piperidin-1-yl)-phenyl]-5-methyl-pyrazolo[1,5-a]pyrimidin-7-ylamine] | 163 to 168 °C | –
CCN(CC)C1CCN(c2cccc(-c3cnn4c(N)c(-c5ccc(F)cc5)c(C)nc34)c2)CC1 [Example 105, 3-[3-(4-Diethylamino-piperidin-1-yl)-phenyl]-6-(4-fluoro-phenyl)-5-methyl-pyrazolo[1,5-a]pyrimidin-7-ylamine] | 208 to 210 °C | –
